Measured values from patent publication US7098001B2, “Polypeptides having dipeptidyl aminopeptidase activity and nucleic acids encoding same” (Novozymes, Inc., priority 1997, dated 2006).
Where a SMILES comes first, the peptide text is derived from it. The star is where a group is joined. pNA = O=[N+]([O-])c1ccc(N*)cc1

Columns and labels:
Type in all cases: biochemical
[1] = molecular target: dipeptidyl aminopeptidase I (Aspergillus oryzae, UniProt Q2UH35); assay: relative activity on mono-, di- and tri-peptide para-nitroanilide substrates; settings: enzyme diluted 100-fold, pH 7.5, ambient temperature; for Activity (mOD/min): substrate 2 mg/ml stock
Description: The relative activity of various mono-, di-, and tri-peptide para-nitroanilide substrates were assayed relative to Ala-Pro-pNA with the purified dipeptidyl aminopeptidase I diluted 100-fold in 50 mM sodium phosphate pH 7.5 buffer. Each substrate was dissolved in DMSO to a concentration of 100 mg/ml and then diluted 50 fold in 50 mM sodium phosphate pH 7.5 buffer to 2 mg/ml. The assay was performed by mixing 100 μl of the substrate solution with 100 μl of the dipeptidyl aminopeptidase I solution and monitoring the change in absorbance at 405 nm and ambient temperature.

[2] = substrate: C[C@H](N)C(=O)N1CCC[C@H]1C(=O)Nc1ccc([N+](=O)[O-])cc1; assay: kinetic parameters (Lineweaver-Burke plot) for dipeptidyl aminopeptidase I substrates; settings: other: 50 mM sodium phosphate pH 7.5
Description: (§1) The kinetic parameters for various dipeptidyl aminopeptidase I substrates was determined using the following protocol. The substrates included Ala-Pro-pNA, Asp-Pro-pNA, and Ala-Ala-pNA. Purified dipeptidyl aminopeptidase I with an A280 of 1.521 was diluted 25-fold for Ala-Pro-pNA, 20-fold for Asp-Pro-pNA, and 10-fold for Ala-Ala-pNA in water. Each substrate was dissolved in DMSO to a concentration of 100 mg/ml and then diluted 50 fold in 50 mM sodium phosphate pH 7.5 buffer to 2 mg/ml. In a 96 well microtiter plate, 10 μl of purified dipeptidyl aminopeptidase I was incubated with each substrate as follows except the 200 μl substrate assay was not performed with the Asp-Pro-pNA substrate, and the absorbance at 405 nm was measured for 3 minutes: • 1. 200 μl of 2 mg/ml substrate+0 μl of 50 mM sodium phosphate buffer pH 7.5 • 2. 100 μl of 2 mg/ml substrate+100 μl of 50 mM sodium phosphate buffer pH 7.5 • 3. 50 μl of 2 mg/ml substrate +150 μl of 50 mM sodium phosphate buffer pH 7.5 • 4. 25 μl of 2 mg/ml substrate+175 μl of 50 mM sodium phosphate buffer pH 7.5 • 5. 10 μl of 2 mg/ml substrate+190 μl of 50 mM sodium phosphate buffer pH 7.5 • 6. 5 μl of 2 mg/ml substrate+195 μl of 50 mM sodium phosphate buffer pH 7.5

[3] = substrate: C[C@H](N)C(=O)N[C@@H](C)C(=O)Nc1ccc([N+](=O)[O-])cc1; assay: as above; settings: other: 50 mM sodium phosphate pH 7.5
Description: as §1

[4] = substrate: N[C@@H](CC(=O)O)C(=O)N1CCC[C@H]1C(=O)Nc1ccc([N+](=O)[O-])cc1; assay: as above; settings: other: 50 mM sodium phosphate pH 7.5
Description: as §1

Molecule | Percent Activity Retative to Ala-Pro-pNA [1] | Activity (mOD/min) [1] | further results
C[C@H](N)C(=O)N1CCC[C@H]1C(=O)Nc1ccc([N+](=O)[O-])cc1 [Ala-Pro-pNA] (H-Ala-Pro-pNA) | 100% | 244 mOD/min | 
N[C@@H](CC(=O)O)C(=O)N1CCC[C@H]1C(=O)Nc1ccc([N+](=O)[O-])cc1 [Asp-Pro-pNA] (H-Asp-Pro-pNA) | 29% | 70.95 mOD/min | 
C[C@H](N)C(=O)Nc1ccc([N+](=O)[O-])cc1 [Ala-pNA] | 0% | 0 mOD/min | 
C[C@H](N)C(=O)N[C@@H](C)C(=O)Nc1ccc([N+](=O)[O-])cc1 [Ala-Ala-pNA] (H-Ala-Ala-pNA) | 12.4% | 30.2 mOD/min | 
C[C@H](N)C(=O)N[C@@H](C)C(=O)N1CCC[C@H]1C(=O)Nc1ccc([N+](=O)[O-])cc1 [Ala-Ala-Pro-pNA] (H-Ala-Ala-Pro-pNA) | 4.3% | 10.6 mOD/min | 
N=C(N)NCCC[C@H](N)C(=O)N1CCC[C@H]1C(=O)Nc1ccc([N+](=O)[O-])cc1 [Arg-Pro-pNA] (H-Arg-Pro-pNA) | 42.17% | 103 mOD/min | 
dipeptidyl aminopeptidase I (Aspergillus oryzae RIB40) (protein) LDVPRKPHAPTGEGSKRLTFNETVVKQAITPTSRSVQWLSGAEDGSYVYAAEDGSLTIENIVTNESRTLIPADKIPTGKEAFNYWIHPDLSSVLWASNHTKQYRHSFFADYYVQDVESLKSVPLMPDQEGDIQYAQWSPVGNTIAFVRENDLYVWDNGTVTRITDDGGPDMFHGVPDWIYEEEILGDRYALWFSPDGEYLAYLSFNETGVPTYTVQYYMDNQEIAPAYPWELKIRYPKVSQTNPTVTLSLLNIASKEVKQAPIDAFESTDLIIGEVAWLTDTHTTVAAKAFNRVQDQQKVVAVDTASNKATVISDRDGTDGWLDNLLSMKYIGPIKPSDKDAYYIDISDHSGWAHLYLFPVSGGEPIPLTKGDWEVTSILSIDQERQLVYYLSTQHHSTERHLYSVSYSTFAVTPLVDDTVAAYWSASFSANSGYYILTYGGPDVPYQELYTTNSTKPLRTITDNAKVLEQIKDYALPNITYFELPLPSGETLNVMQRLPPGFSPDKKYPILFTPYGGPGAQEVTKRWQALNFKAYVASDSELEYVTWTVDNRGTGFKGRKFRSAVTRQLGLLEAEDQIYAAQQAANIPWIDADHIGIWGWSFGGYLTSKVLEKDSGAFTLGVITAPVSDWRFYDSMYTERYMKTLSTNEEGYETSAVRKTDGFKNVEGGFLIQHGTGDDNVHFQNSAALVDLLMGDGVSPEKLHSQWFTDSDHGISYHGGGVFLYKQLARKLYQEKNRQTQVLMHQWTKKDLEE |  |  | Km [2]: 0.140 mM; kcat [2]: 576.3 min⁻¹; Km [3]: 1.08 mM; kcat [3]: 106.5 min⁻¹; Km [4]: 0.632 mM; kcat [4]: 244.3 min⁻¹

Second part, led by results:

Percent Activity Retative to Ala-Pro-pNA [1] | Activity (mOD/min) [1] | Molecule | further results
0% | 0 mOD/min | CC(C)C[C@H](N)C(=O)Nc1ccc([N+](=O)[O-])cc1 [Leu-pNA] | 
20.3% | 49.5 mOD/min | CC(C)[C@H](N)C(=O)N[C@@H](C)C(=O)Nc1ccc([N+](=O)[O-])cc1 [Val-Ala-pNA] (H-Val-Ala-pNA) | 
0% | 0 mOD/min | NCC(=O)N[C@@H](CCCN=C(N)N)C(=O)Nc1ccc([N+](=O)[O-])cc1 [Gly-Arg-pNA] (H-Gly-Arg-pNA) | 
51.25% | 125 mOD/min | NCC(=O)N1CCCC1C(=O)Nc1ccc([N+](=O)[O-])cc1 (stereo not drawn) [Gly-Pro-pNA] | 
0% | <2 mOD/min | NCC(=O)N[C@@H](CCC(=O)O)C(=O)Nc1ccc([N+](=O)[O-])cc1 [Gly-Glu-pNA] (H-Gly-Glu-pNA) | 
